According to ChEMBL document CHEMBL5143724, “Small Molecules Promote Selective Denaturation and Degradation of Tubulin Heterodimers through a Low-Barrier Hydrogen Bond” (J Med Chem, 2022):
Calls of active or inactive are those of the source. No cut-off for these calls is given here.

What was measured:
HeLa [1] = assay: Downregulation of Alpha tubulin level in human HeLa cells at 1 uM by immunoblot analysis; type: functional, cell-based; conditions: time 1-16 hrs, TDE = time-dependent effect
HeLa [2] = assay: Induction of FLAG tagged Beta tubulin E198Q mutant (unknown origin) transfected in HeLa cells incubated for 16 hrs by immunoblotting analysis; type: cell-based; conditions: Homo sapiens
HeLa [3] = assay: Reduction in Beta tubulin mRNA expression in human HeLa cells at 1 uM measured upto 16 hrs by qPCR analysis; type: functional, cell-based
[4] = target: T1, Tubulin alpha (Homo sapiens) (UniProt P0DPH7+P68366+Q71U36+P68363+Q9BQE3+Q6PEY2+A6NHL2+Q9NY65); assay: Induction of Alpha tubulin degradation in human HeLa cells at 1 uM incubated for 16 hrs in presence of maytansine by immunoblot analysis; type: cell-based
HeLa [5] = assay: Reduction in Alpha tubulin mRNA expression in human HeLa cells at 1 uM measured upto 16 hrs by qPCR analysis; type: functional, cell-based
[6] = target: T1, Tubulin alpha (Homo sapiens); assay: Induction of Alpha tubulin degradation in human HeLa cells at 1 uM incubated for 16 hrs in presence of pironetin by immunoblot analysis; type: cell-based
HCT-116 [7] = assay: Induction of apoptosis in human HCT-116 cells assessed as accumulation of cells at G2/M phase 0.1 to 10 uM incubated for 16 hrs by propidium iodide staining based flow cytometry; type: functional, cell-based; conditions: dose 0.1-10 µM
Tubulin (Homo sapiens) [8] = target: T2, Tubulin (Homo sapiens) (UniProt P68371+Q9H4B7+P0DPH7+P68366+Q13509+Q71U36+P04350+Q3ZCM7+P07437+P68363+Q9BQE3+Q6PEY2+Q13885+Q9BVA1+Q9BUF5); assay: Induction of tubulin […] (unknown origin) assessed as increase in turbidity at 5 to 20 uM measured every one min for 30 mins by absorbance based analysis; type: protein-complex assay; conditions: dose 5-20 µM
[9] = target: T3, Tubulin beta (Homo sapiens) (UniProt P68371+Q9H4B7+Q13509+P04350+Q3ZCM7+P07437+Q13885+Q9BVA1+Q9BUF5+A6NNZ2); assay: Induction of wild type flag tagged Beta tubulin (unknown origin) transfected in HeLa cells incubated for 16 hrs by immunoblotting analysis; type: cell-based
[10] = target: T3, Tubulin beta (Homo sapiens); assay: Induction of Beta tubulin degradation in human HeLa cells assessed as increase in ubiquitination level of Beta tubulin at 1 to 10 uM incubated for 6 hrs by immunoblot analysis; type: cell-based; conditions: dose 1-10 µM
SU-DHL-6 [11] = assay: Downregulation of Alpha tubulin level in human SU-DHL-6 cells incubated for 24 hrs by immunoblot analysis; type: functional, cell-based; conditions: dose 0.1-10 µM, DDE = dose-dependent effect
Tubulin beta = assay: Induction of Beta tubulin degradation in human HeLa cells incubated for 24 hrs by immunoblot analysis; type: cell-based
[12] = tested on: Tubulin beta (Homo sapiens), P68371+Q9H4B7+Q13509+P04350+Q3ZCM7+P07437+Q13885+Q9BVA1+Q9BUF5+A6NNZ2 [UNDEFINED MUTATION]; assay: Induction of FLAG tagged Beta tubulin E198D mutant (unknown origin) transfected in HeLa cells incubated for 16 hrs by immunoblotting analysis; type: cell-based
[13] = target: T3, Tubulin beta (Homo sapiens); assay: Induction of Beta tubulin degradation in human HeLa cells at 1 uM incubated for 16 hrs in presence of maytansine by immunoblot analysis; type: cell-based
HeLa [14] = assay: Downregulation of Beta tubulin level in human HeLa cells incubated for 24 hrs by immunoblot analysis; type: functional, cell-based; conditions: dose 0.1-10 µM, DDE = dose-dependent effect
Tubulin (Sus scrofa) [15] = target: T4, Tubulin (Sus scrofa) (UniProt P02554+P02550); assay: Induction of porcine tubulin aggregation assessed as formation of spherical sized tubulin aggregates at 20 uM incubated for 4 hrs by TEM analysis; type: protein assay
NCI-H460 [16] = assay: Downregulation of Alpha tubulin level in human NCI-H460 cells incubated for 24 hrs by immunoblot analysis; type: functional, cell-based; conditions: dose 0.1-10 µM, DDE = dose-dependent effect
HeLa [17] = assay: Downregulation of Alpha tubulin level in human HeLa cells incubated for 24 hrs by immunoblot analysis; type: functional, cell-based; conditions: dose 0.1-10 µM, DDE = dose-dependent effect
HeLa [18] = assay: Induction of apoptosis in human HeLa cells assessed as accumulation of cells at G2/M phase 0.1 to 10 uM incubated for 16 hrs by propidium iodide staining based flow cytometry; type: functional, cell-based; conditions: dose 0.1-10 µM
[19] = target: T1, Tubulin alpha (Homo sapiens); assay: Induction of Alpha tubulin degradation in human HeLa cells assessed as increase in ubiquitination level of Alpha tubulin at 1 to 10 uM incubated for 6 hrs by immunoblot analysis; type: cell-based; conditions: dose 1-10 µM
[20] = target: T3, Tubulin beta (Homo sapiens); assay: Induction of Beta tubulin degradation in human HeLa cells at 1 uM incubated for 16 hrs in presence of pironetin by immunoblot analysis; type: cell-based
HCT-116 [21] = assay: Downregulation of Beta tubulin level in human HCT-116 cells at 1 uM by immunoblot analysis; type: functional, cell-based; conditions: time 1-16 hrs, TDE = time-dependent effect
HeLa [22] = assay: Induction of FLAG tagged Beta tubulin E198G mutant (unknown origin) transfected in HeLa cells incubated for 16 hrs by immunoblotting analysis; type: cell-based; conditions: Homo sapiens
HeLa [23] = assay: Downregulation of Beta tubulin level in human HeLa cells at 1 uM measured for 6 hrs by tandem mass tag quantitative proteomic analysis; type: functional, cell-based
HCT-116 [24] = assay: Downregulation of Beta tubulin level in human HCT-116 cells incubated for 24 hrs by immunoblot analysis; type: functional, cell-based; conditions: dose 0.1-10 µM, DDE = dose-dependent effect
[25] = target: T3, Tubulin beta (Homo sapiens); assay: Binding affinity to Beta-tubulin colchicine binding site in human HeLa cells assessed as inhibition of tubulin-EBI adduct formation at 2 to 25 uM pretreated fo 1 hr with compound followed by EBI addition measured after 2 hrs by Western blotting analysis; type: cell-based; conditions: dose 2-25 µM, time 3.0 hrs
Tubulin (Homo sapiens) [26] = target: T2, Tubulin (Homo sapiens); assay: Induction of tubulin degradation in human HeLa cells assessed as ubiquitin of total protein at 0.01 to 100 uM incubated for 16 hrs by immunoblot analysis; type: cell-based; conditions: dose 0.01-100 µM
Tubulin (Homo sapiens) [27] = target: T2, Tubulin (Homo sapiens); assay: Destabilization of tubulin (unknown origin) assessed as melting temperature at 30 uM incubated for 20 mins by differential scanning fluorimetry; type: protein-complex assay
[28] = tested on: Tubulin beta (Homo sapiens), P68371+Q9H4B7+Q13509+P04350+Q3ZCM7+P07437+Q13885+Q9BVA1+Q9BUF5+A6NNZ2 [UNDEFINED MUTATION]; assay: Induction of FLAG tagged Beta tubulin (unknown origin) Y200F mutant transfected in human HeLa cells incubated for 16 hrs by immunoblotting analysis; type: cell-based
HCT-116 [29] = assay: Antiproliferative activity against human HCT-116 cells assessed as cell viability at 0.001 to 100 uM incubated for 72 hrs by MTT assay; type: functional, cell-based; conditions: dose 0.001-100 µM
[30] = target: T3, Tubulin beta (Homo sapiens); assay: Induction of Beta tubulin degradation in human HeLa cells at 1 uM incubated for 16 hrs in presence of vinblastine by immunoblot analysis; type: cell-based
HeLa [31] = assay: Antiproliferative activity against human Hela cells assessed as cell viability at 0.001 to 100 microM incubated for 72 hrs by MTT assay; type: functional, cell-based; conditions: dose 0.001-100 µM
HCT-116 [32] = assay: In vivo antitumor activity against human HCT-116 cells xenografted in Balb/c nude athymic mouse assessed as inhibition of tumor growth administered ip once a week and measured every 2 days for 24 days; type: functional, organism-based; conditions: dose 10-40 mg/kg, time 2.0 day, DDE = dose-dependent effect
[33] = target: T1, Tubulin alpha (Homo sapiens); assay: Induction of Alpha tubulin degradation in human HeLa cells at 1 uM incubated for 16 hrs in presence of vinblastine by immunoblot analysis; type: cell-based
Tubulin (Sus scrofa) [34] = target: T4, Tubulin (Sus scrofa); assay: Inhibition of porcine tubulin polymerization measured every 1 min for 30 mins in presence of GTP by microplate reader analysis; type: protein assay; conditions: dose 5-20 µM, DDE = dose-dependent effect
NCI-H460 [35] = assay: Downregulation of Beta tubulin level in human NCI-H460 cells incubated for 24 hrs by immunoblot analysis; type: functional, cell-based; conditions: dose 0.1-10 µM, DDE = dose-dependent effect
NCI-H460 [36] = assay: In vivo antitumor activity against human NCI-H460 cells xenografted in Balb/c nude athymic mouse assessed as inhibition of tumor growth administered ip once a week and measured every 2 days for 24 days; type: functional, organism-based; conditions: dose 10-40 mg/kg, time 2.0 day, DDE = dose-dependent effect
HCT-116 [37] = assay: Downregulation of Alpha tubulin level in human HCT-116 cells at 1 uM by immunoblot analysis; type: functional, cell-based; conditions: time 1-16 hrs, TDE = time-dependent effect
Tubulin alpha = assay: Induction of Alpha tubulin degradation in human HeLa cells incubated for 24 hrs by immunoblot analysis; type: cell-based
SU-DHL-6 [38] = assay: Downregulation of Beta tubulin level in human SU-DHL-6 cells incubated for 24 hrs by immunoblot analysis; type: functional, cell-based; conditions: dose 0.1-10 µM, DDE = dose-dependent effect
HeLa [39] = assay: Downregulation of Beta tubulin level in human HeLa cells at 1 uM by immunoblot analysis; type: functional, cell-based; conditions: time 1-16 hrs, TDE = time-dependent effect
HCT-116 [40] = assay: Downregulation of Alpha tubulin level in human HCT-116 cells incubated for 24 hrs by immunoblot analysis; type: functional, cell-based; conditions: dose 0.1-10 µM, DDE = dose-dependent effect
HeLa [41] = assay: Downregulation of Alpha tubulin level in human HeLa cells at 1 uM measured for 6 hrs by tandem mass tag quantitative proteomic analysis; type: functional, cell-based
NCI-H460 [42] = assay: Antiproliferative activity against human NCI-H460 cells assessed as cell viability at 0.001 to 100 uM incubated for 72 hrs by MTT assay; type: functional, cell-based; conditions: dose 0.001-100 µM
HCT-116 [43] = assay: In vivo antitumor activity against human HCT-116 cells xenografted in mouse model assessed as reduction in beta tubulin level at 80 mg/kg administered once through tail vein injection measured after 24 hrs by immunoblot analysis; type: functional, organism-based
Tubulin (Homo sapiens) [44] = target: T2, Tubulin (Homo sapiens); assay: Induction of tubulin aggregation in human HeLa cells by size-exclusion chromatography; type: cell-based
HCT-116 [45] = assay: In vivo antitumor activity against human HCT-116 cells xenografted in mouse model assessed as reduction in alpha tubulin level at 80 mg/kg administered once through tail vein injection measured after 24 hrs by immunoblot analysis; type: functional, organism-based
[46] = target: T3, Tubulin beta (Homo sapiens); assay: Induction of Beta tubulin degradation in human HeLa cells at 0.001 to 100 uM incubated for 16 hrs by immunoblotting analysis; type: cell-based; conditions: dose 0.001-100 µM
HeLa [47] = assay: Antiproliferative activity against human HeLa cells assessed as cell viability at 0.001 to 100 uM incubated for 48 hrs by MTT assay; type: functional, cell-based; conditions: dose 0.001-100 µM

T4 sequence (P02550 whole entry, looked up): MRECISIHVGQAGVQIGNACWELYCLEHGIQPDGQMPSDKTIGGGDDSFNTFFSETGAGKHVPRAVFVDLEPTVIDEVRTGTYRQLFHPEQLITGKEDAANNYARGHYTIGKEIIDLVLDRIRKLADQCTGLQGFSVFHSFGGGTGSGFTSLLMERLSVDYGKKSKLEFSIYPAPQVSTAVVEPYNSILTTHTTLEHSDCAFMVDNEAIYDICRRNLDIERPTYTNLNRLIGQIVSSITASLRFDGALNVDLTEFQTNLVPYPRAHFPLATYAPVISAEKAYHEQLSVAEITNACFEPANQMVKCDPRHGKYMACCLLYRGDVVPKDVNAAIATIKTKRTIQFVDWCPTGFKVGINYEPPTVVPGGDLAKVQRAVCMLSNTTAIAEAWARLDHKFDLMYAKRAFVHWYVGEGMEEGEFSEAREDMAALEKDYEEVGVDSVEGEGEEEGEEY
T4 sequence (P02554 whole entry, looked up): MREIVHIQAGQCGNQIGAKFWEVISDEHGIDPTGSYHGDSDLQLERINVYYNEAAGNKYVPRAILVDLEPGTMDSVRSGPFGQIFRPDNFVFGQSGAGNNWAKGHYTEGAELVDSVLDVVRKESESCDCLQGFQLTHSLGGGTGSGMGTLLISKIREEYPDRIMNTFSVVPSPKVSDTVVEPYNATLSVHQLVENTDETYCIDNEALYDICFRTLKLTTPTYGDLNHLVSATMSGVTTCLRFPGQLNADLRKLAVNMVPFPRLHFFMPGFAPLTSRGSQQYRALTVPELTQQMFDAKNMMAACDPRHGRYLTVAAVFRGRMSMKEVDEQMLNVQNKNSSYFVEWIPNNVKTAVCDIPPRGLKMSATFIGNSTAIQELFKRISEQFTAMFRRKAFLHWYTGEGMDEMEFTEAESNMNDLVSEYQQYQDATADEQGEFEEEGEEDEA

c1ccc(Oc2cccc(CNc3cc4c(cn3)[nH]c3ccccc34)c2)cc1
Activity (HeLa [1]): Tde | Activity (HeLa [2]): Active | Activity (HeLa [3]): Active | Activity [4]: Active | Activity (HeLa [5]): Active | Activity [6]: Active | Activity (HCT-116 [7]): Active | Activity (Tubulin (Homo sapiens) [8]): Active | Activity [9]: Active | Activity [10]: Active | Activity (SU-DHL-6 [11]): Dde | DC50 (Tubulin beta): 0.524 µM | Activity [12]: Active | Activity [13]: Active | Activity (HeLa [14]): Dde | Activity (Tubulin (Sus scrofa) [15]): Active | Activity (NCI-H460 [16]): Dde | Activity (HeLa [17]): Dde | Activity (HeLa [18]): Active | Activity [19]: Active | Activity [20]: Active | Activity (HCT-116 [21]): Tde | Activity (HeLa [22]): Active | Activity (HeLa [23]): Active | Activity (HCT-116 [24]): Dde | Activity [25]: Active | Activity (Tubulin (Homo sapiens) [26]): Active | Tm (Tubulin (Homo sapiens) [27]): 51.5 °C | Activity [28]: Active | Activity (HCT-116 [29]): Active | Activity [30]: Active | Activity (HeLa [31]): Active | Activity (HCT-116 [32]): Dde | Activity [33]: Active | inhibition (Tubulin (Sus scrofa) [34]): Dde | Activity (NCI-H460 [35]): Dde | Activity (NCI-H460 [36]): Dde | Activity (HCT-116 [37]): Tde | DC50 (Tubulin alpha): 0.182 µM | Activity (SU-DHL-6 [38]): Dde | Activity (HeLa [39]): Tde | Activity (HCT-116 [40]): Dde | Activity (HeLa [41]): Active | Activity (NCI-H460 [42]): Active | Activity (HCT-116 [43]): Active | Activity (Tubulin (Homo sapiens) [44]): Active | Activity (HCT-116 [45]): Active

c1ccc(Oc2cccc(CCc3cc4c(cn3)[nH]c3ccccc34)c2)cc1
Activity [46]: Active | Activity (HeLa [47]): Active
